According to US11660319B2, “Compositions comprising bacterial strains” (priority 2017, dated 2023):

Tests used:
[1] = tested on: HDAC; experiment: HDAC inhibition on whole HT-29 cells and HT-29 cell lysate; format: cell-based; conditions: HT-29, whole cells or lysate not told apart in the sentence
Experimental: Bacterial culture and cell-free supernatant collection Pure cultures of bacteria were grown anaerobically in YCFA broth until they reached their stationary growth phase. Cultures were centrifuged at 5,000×g for 5 minutes and the cell-free supernatant (CFS) was filtered using a 0.2 μM filter (Millipore, UK). 1 mL aliquots of the CFS were stored at −80° C. until use. Sodium butyrate, hexanoic and valeric acid were obtained from Sigma Aldrich (UK) and suspensions were prepared in YCFA broth.
To investigate which metabolites were responsible for the strain-induced HDAC inhibition, different concentrations of hexanoic acid, valeric acid and sodium butyrate were measured for their HDAC inhibition on whole HT-29 cells and on HT-29 cell lysate.

[2] = tested on: Class I HDACs; experiment: Specific HDAC activity analysis, Class I HDACs overall; format: biochemical
Experimental: Specific HDAC inhibition activity was analysed for HDAC1, 2, 3, 4, 5, 6, 9 using fluorogenic assay kits for each type of HDAC (BPS Bioscience, CA). Assays were conducted according to manufacturer's instructions and each sample were performed in replicates. Cell free supernatants were diluted 1 in 10 and exposed to specific HDAC proteins provided in the kit to maintain consistency between methods.
The specific HDAC inhibition profile of the test bacteria strain was investigated. Specific HDAC inhibition assays (BPS Bioscience, CA) were carried out for Class I and Class II HDACs. The ability of the bacterial strain to inhibit HDAC enzymes was compared to butyrate, hexanoic and valeric acid (FIGS. 14 and 15).

Compound: CCCCC(=O)O [valeric acid]
- total HDAC activity, pure substances [1]: significant HDAC inhibition
- total HDAC activity, pure substances ([1]; listed as Valeric acid): inhibited
- Inhibition of Class I HDACs [2]: class 1 HDAC inhibitor
